From US8741906B2 (priority 2011, dated 2014)
Like-named read-outs stand apart in the source and are kept apart here.

Columns and labels:
[1] = molecular target: T1, human CB1 receptors (Homo sapiens, UniProt P21554); assay: functional cAMP assay, human CB1; assay type: cell-based
T1 construct: expressed in transfected cells; host or cells: CHO cells
Procedure, shortened: (§1)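 Readout: TR-FRET cAMP detection at 730 and 645 nm with 355 nm excitation, quantified from a standard curve spanning 10 μM to 0.13 nM cAMP. Human CB1- or CB2-expressing CHO cells were exposed to compound for 30 min at 30 °C in KRB buffer containing 1 mM IBMX. EC50 derived.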

[2] = molecular target: T2, human CB2 receptors (Homo sapiens, UniProt P34972); assay: functional cAMP assay, human CB2; assay type: cell-based; details: CHO cells expressing human CB2, cAMP; read-out: human CB2 EC50
T2 construct: expressed in transfected cells; host or cells: CHO cells
Procedure, shortened: as §1

[3] = CHO cells expressing human CB1, cAMP, read-out: human CB1 EC50

T2 sequence (P34972 whole entry): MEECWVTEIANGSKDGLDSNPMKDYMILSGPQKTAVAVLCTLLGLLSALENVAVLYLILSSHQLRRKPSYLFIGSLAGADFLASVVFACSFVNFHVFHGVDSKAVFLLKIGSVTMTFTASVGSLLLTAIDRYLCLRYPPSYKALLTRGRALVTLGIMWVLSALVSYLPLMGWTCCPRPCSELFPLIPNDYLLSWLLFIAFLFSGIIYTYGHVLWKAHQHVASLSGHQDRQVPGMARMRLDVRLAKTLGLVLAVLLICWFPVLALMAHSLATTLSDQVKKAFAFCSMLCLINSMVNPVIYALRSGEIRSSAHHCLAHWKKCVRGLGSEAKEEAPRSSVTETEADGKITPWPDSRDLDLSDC
T1 sequence (P21554 whole entry): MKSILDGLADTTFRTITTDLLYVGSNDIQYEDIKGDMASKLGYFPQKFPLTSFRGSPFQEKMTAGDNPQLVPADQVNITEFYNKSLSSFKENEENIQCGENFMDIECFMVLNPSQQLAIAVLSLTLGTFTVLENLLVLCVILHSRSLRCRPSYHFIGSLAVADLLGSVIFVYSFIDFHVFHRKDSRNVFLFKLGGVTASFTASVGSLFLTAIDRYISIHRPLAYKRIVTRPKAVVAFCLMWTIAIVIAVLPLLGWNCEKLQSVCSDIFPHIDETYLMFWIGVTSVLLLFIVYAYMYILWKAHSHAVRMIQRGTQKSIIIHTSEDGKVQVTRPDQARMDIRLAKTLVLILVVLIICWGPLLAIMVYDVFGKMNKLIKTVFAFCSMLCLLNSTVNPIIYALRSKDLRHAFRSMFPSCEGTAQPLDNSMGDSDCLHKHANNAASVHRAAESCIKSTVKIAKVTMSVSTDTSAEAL

CC(C)(C)c1nc(N2CC[C@H](O)[C@@H]2CO)c2nnn(Cc3cccnc3Cl)c2n1 [Example 172, (2S,3S)-1-[5-tert-Butyl-3-(2-chloro-pyridin-3-ylmethyl)-3H-[1,2,3]triazolo[4,5-d]pyrimidin-7-yl]-2-hydroxymethyl-pyrrolidin-3-ol]
EC50 [1, 3]: > 10 µM
EC50 [2]: 4.1 nM

Cc1nonc1Cn1nnc2c(N3CC(F)(F)C(F)(F)C3)nc(C(C)(C)C)nc21 [Example 173, 5-tert-Butyl-3-(4-methyl-furazan-3-ylmethyl)-7-(3,3,4,4-tetrafluoro-pyrrolidin-1-yl)-3H-[1,2,3]triazolo[4,5-d]pyrimidine]
EC50 [1, 3]: > 10 µM
EC50 [2]: 0.3 nM

Cc1noc(Cn2nnc3c(N4CC(F)(F)C(F)(F)C4)nc(C(C)(C)C)nc32)n1 [Example 174, 5-tert-Butyl-3-(3-methyl-[1,2,4]oxadiazol-5-ylmethyl)-7-(3,3,4,4-tetrafluoro-pyrrolidin-1-yl)-3H-[1,2,3]triazolo[4,5-d]pyrimidine]
EC50 [1, 3]: > 10 µM
EC50 [2]: 2 nM

Cc1nnc(Cn2nnc3c(N4CC(F)(F)C(F)(F)C4)nc(C(C)(C)C)nc32)o1 [Example 175, 5-tert-Butyl-3-(5-methyl-[1,3,4]oxadiazol-2-ylmethyl)-7-(3,3,4,4-tetrafluoro-pyrrolidin-1-yl)-3H-[1,2,3]triazolo[4,5-d]pyrimidine]
EC50 [1, 3]: > 10 µM
EC50 [2]: 1.5 nM

Cn1nnnc1Cn1nnc2c(N3CC(F)(F)C(F)(F)C3)nc(C(C)(C)C)nc21 [Example 176, 5-tert-Butyl-3-(1-methyl-1H-tetrazol-5-ylmethyl)-7-(3,3,4,4-tetrafluoro-pyrrolidin-1-yl)-3H-[1,2,3]triazolo[4,5-d]pyrimidine]
EC50 [1, 3]: 2 µM
EC50 [2]: 0.5 nM

Cc1nnc(Cn2nnc3c(N4CC(F)(F)C(F)(F)C4)nc(C(C)(C)C)nc32)n1C [Example 177, 5-tert-Butyl-3-(4,5-dimethyl-4H-[1,2,4]triazol-3-ylmethyl)-7-(3,3,4,4-tetrafluoro-pyrrolidin-1-yl)-3H-[1,2,3]triazolo[4,5-d]pyrimidine]
EC50 [1, 3]: > 10 µM
EC50 [2]: 1.1 nM

Cn1nncc1Cn1nnc2c(N3CC(F)(F)C(F)(F)C3)nc(C(C)(C)C)nc21 [Example 178, 5-tert-Butyl-3-(3-methyl-3H-[1,2,3]triazol-4-ylmethyl)-7-(3,3,4,4-tetrafluoro-pyrrolidin-1-yl)-3H-[1,2,3]triazolo[4,5-d]pyrimidine]
EC50 [1, 3]: 1.89 µM
EC50 [2]: 0.9 nM

Cc1nonc1Cn1nnc2c(N3CC4(COC4)C3)nc(C(C)(C)C)nc21 [Example 179, 5-tert-Butyl-3-(4-methyl-furazan-3-ylmethyl)-7-(2-oxa-6-aza-spiro[3.3]hept-6-yl)-3H-[1,2,3]triazolo[4,5-d]pyrimidine]
EC50 [1, 3]: > 10 µM
EC50 [2]: 2 nM

Cc1noc(Cn2nnc3c(N4CC5(COC5)C4)nc(C(C)(C)C)nc32)n1 [Example 180, 5-tert-Butyl-3-(3-methyl-[1,2,4]oxadiazol-5-ylmethyl)-7-(2-oxa-6-aza-spiro[3.3]hept-6-yl)-3H-[1,2,3]triazolo[4,5-d]pyrimidine]
EC50 [1, 3]: > 10 µM
EC50 [2]: 52.8 nM

Cc1nnc(Cn2nnc3c(N4CC5(COC5)C4)nc(C(C)(C)C)nc32)o1 [Example 181, 5-tert-Butyl-3-(5-methyl-[1,3,4]oxadiazol-2-ylmethyl)-7-(2-oxa-6-aza-spiro[3.3]hept-6-yl)-3H-[1,2,3]triazolo[4,5-d]pyrimidine]
EC50 [1, 3]: > 10 µM
EC50 [2]: 59.4 nM

Cn1nnnc1Cn1nnc2c(N3CC4(COC4)C3)nc(C(C)(C)C)nc21 [Example 182, 5-tert-Butyl-3-(1-methyl-1H-tetrazol-5-ylmethyl)-7-(2-oxa-6-aza-spiro[3.3]hept-6-yl)-3H-[1,2,3]triazolo[4,5-d]pyrimidine]
EC50 [1, 3]: > 10 µM
EC50 [2]: 13.9 nM

CC(C)(C)c1nc(N2CC3(COC3)C2)c2nnn(Cc3nnnn3C3CC3)c2n1 [Example 183, 5-tert-Butyl-3-(1-cyclopropyl-1H-tetrazol-5-ylmethyl)-7-(2-oxa-6-aza-spiro[3.3]hept-6-yl)-3H-[1,2,3]triazolo[4,5-d]pyrimidine]
EC50 [1, 3]: > 10 µM
EC50 [2]: 4.2 nM

Cc1nnc(Cn2nnc3c(N4CC5(COC5)C4)nc(C(C)(C)C)nc32)n1C [Example 184, 5-tert-Butyl-3-(4,5-dimethyl-4H-[1,2,4]triazol-3-ylmethyl)-7-(2-oxa-6-aza-spiro[3.3]hept-6-yl)-3H-[1,2,3]triazolo[4,5-d]pyrimidine]
EC50 [1]: > 10 µM
EC50 [2]: 112 nM

Cn1nncc1Cn1nnc2c(N3CC4(COC4)C3)nc(C(C)(C)C)nc21 [Example 185, 5-tert-Butyl-3-(3-methyl-3H-[1,2,3]triazol-4-ylmethyl)-7-(2-oxa-6-aza-spiro[3.3]hept-6-yl)-3H-[1,2,3]triazolo[4,5-d]pyrimidine]
EC50 [1, 3]: > 10 µM
EC50 [2]: 26.8 nM

CC(C)(C)c1nc(N2CC3(COC3)C2)c2nnn(Cc3ccccc3S(C)(=O)=O)c2n1 [Example 186, 5-tert-Butyl-3-(2-methanesulfonyl-benzyl)-7-(2-oxa-6-aza-spiro[3.3]hept-6-yl)-3H-[1,2,3]triazolo[4,5-d]pyrimidine]
EC50 [1, 3]: 0.137 µM
EC50 [2]: 0.3 nM

CC(C)(C)c1nc(N2CC3(COC3)C2)c2nnn(Cc3ncccc3Cl)c2n1 [Example 187, 5-tert-Butyl-3-(3-chloro-pyridin-2-ylmethyl)-7-(2-oxa-6-aza-spiro[3.3]hept-6-yl)-3H-[1,2,3]triazolo[4,5-d]pyrimidine]
EC50 [1, 3]: 0.119 µM
EC50 [2]: 0.8 nM

CC(C)(C)c1nc(N2CCC(=O)C2)c2nnn(Cc3ccccc3Cl)c2n1 [Example 188, 1-[5-tert-Butyl-3-(2-chloro-benzyl)-3H-[1,2,3]triazolo[4,5-d]pyrimidin-7-yl]-pyrrolidin-3-one]
EC50 [1, 3]: > 10 µM
EC50 [2]: 1 nM

CC1(C)CCN(c2nc(C(C)(C)C)nc3c2nnn3Cc2ccccc2Cl)C1 [Example 189, 5-tert-Butyl-3-(2-chloro-benzyl)-7-(3,3-dimethyl-pyrrolidin-1-yl)-3H-[1,2,3]triazolo[4,5-d]pyrimidine]
EC50 [1, 3]: > 10 µM
EC50 [2]: 33.2 nM

CNC1CCN(c2nc(C(C)(C)C)nc3c2nnn3Cc2ccccc2Cl)C1 (centres unmarked) [Example 190, {1-[5-tert-Butyl-3-(2-chloro-benzyl)-3H-[1,2,3]triazolo[4,5-d]pyrimidin-7-yl]-pyrrolidin-3-yl}-methyl-amine]
EC50 [1, 3]: > 10 µM
EC50 [2]: 72.6 nM

CN(C)C1CCN(c2nc(C(C)(C)C)nc3c2nnn3Cc2ccccc2Cl)C1 (centres unmarked) [Example 191, {1-[5-tert-Butyl-3-(2-chloro-benzyl)-3H-[1,2,3]triazolo[4,5-d]pyrimidin-7-yl]-pyrrolidin-3-yl}-dimethyl-amine]
EC50 [1]: > 10 µM
EC50 [2]: 173 nM

CC(=O)N[C@H]1CCN(c2nc(C(C)(C)C)nc3c2nnn3Cc2ccccc2Cl)C1 [Example 192, N-{(S)-1-[5-tert-Butyl-3-(2-chloro-benzyl)-3H-[1,2,3]triazolo[4,5-d]pyrimidin-7-yl]-pyrrolidin-3-yl}-acetamide]
EC50 [1, 3]: > 10 µM
EC50 [2]: 22 nM

CC(=O)N[C@@H]1CCN(c2nc(C(C)(C)C)nc3c2nnn3Cc2ccccc2Cl)C1 [Example 193, N-{(R)-1-[5-tert-Butyl-3-(2-chloro-benzyl)-3H-[1,2,3]triazolo[4,5-d]pyrimidin-7-yl]-pyrrolidin-3-yl}-acetamide]
EC50 [1, 3]: > 10 µM
EC50 [2]: 593 nM
